In data set [1] the test system is FAM213B and HLA-F. Put plainly: Expression-based proteomics (TMT-exp) of compound-treated T cells, FAM213B and HLA-F. The class given is cell-based, human. The following applies: 24 h; >3000 total proteins quantified. The method, then: FIG. 7B is a scatter plot representation of protein abundance changes caused by BPK-25 (10 μM, 24 h) in two independent replicate experiments, with decreases in NuRD complex components highlighted in red. FIG. 7C is a heatmap of top proteins with decreased abundance in BPK-25-treated T cells showing that the subset of these proteins in the NuRD complex (asterisks) were largely unaltered by other active compounds and blocked in their degradation by co-treatment with the proteasome inhibitor MG132. […] FIG. 7E is a bar graph […] showing time-dependent reductions in NuRD complex members in human T cells treated with BPK-25 (10 μM). Left, representative western blots. Right, quantification of changes in protein. […] FIG. 7G is a heat map showing the changes in cysteine reactivity for NuRD complex members in human T cells treated with BPK-25 and other active compounds.
Freshly isolated T cells (1.6×10^7 cells, 2×10^6 cells/mL in RPMI media) were treated with compound or DMSO for 24 h, pelleted (600 g, 5 min), and washed with PBS (1×10 mL). The cells were then transferred to an Eppendorf tube in additional PBS (1 mL), pelleted (600 g, 5 min), flash frozen, and kept at −80° C. until further analysis. […]
At individual TMT experiment level, the following filters were applied to remove low-quality peptides: removal of non-unique peptides; removal of half-tryptic peptides; removal of peptides with more than one internal miscleaved site; removal of cysteine-containing peptides; removal of peptides with low (<10,000) sum of reporter ion intensities for control channels, and peptides with high variation between the replicate control channels (coefficient of variance >0.5). R values (compound-treated vs. DMSO-treated) were calculated using the reporter ion intensities of compound and DMSO treated TMT channels for each treatment group. […] Proteins were required to have at least two unique quantified peptides in each experiment and were quantified in at least two independent experiments.

The test system of data set [2] is primary human T cells. Put plainly: T cell viability by flow cytometry (near-IR LIVE/DEAD stain). The class given is cell-based. The following applies: for cytotoxicity: concentration-dependent profiles, at <20 μM. The method, then:
FIG. 4A-4D is an overview of a multidimensional screen to identify elaborated electrophilic compounds that suppress T cell activation. FIG. 4A is a workflow for T-cell activation screen. Primary human T cells were treated with a focused library of elaborated electrophilic compounds (10 μM, structures of compounds in FIG. 12), a positive control immunosuppressive compound (DMF, 50 μM), or DMSO under TCR-stimulating conditions in 96-well plates pre-coated with 5 μg/mL αCD3 and 2 μg/mL αCD28 for 24 h. T cell activation was measured using a combination of markers, including IL2 and IFNγ secretion, as well as surface expression of CD25 and CD69. T cell viability was measured by flow cytometry using a Fixable Near-IR LIVE/DEAD™ Cell Stain. Compounds were considered as active hits if they reduced IL2 cytokine production by >65% with <15% reduction in T cell viability in the cytotoxicity assay compared to DMSO control. […] FIG. 4C are structures of active hit compounds selected for follow-up studies, including two acrylamides (BPK-21, BPK-25), two chloroacetamides (EV-3, EV-93) and DMF as a positive control. FIG. 4D are line graphs showing T cell activation and cytotoxicity profiles for selected hit compounds.
Non-tissue culture treated 96-well plates were pre-coated with αCD3 (5 μg/mL) and αCD28 antibodies (2 μg/mL) in PBS (100 μL/well) and left at 4° C. overnight. Freshly isolated T cells were re-suspended in RPMI media supplemented with 10% FBS, L-glutamine (2 mM), penicillin (100 U/mL), and streptomycin ([…]) at 2×10^6 cells/mL. Compound stocks (200×) in DMSO were diluted to 2× stocks in the working RPMI media in another 96-well plate. The pre-coated 96-well treatment plates were washed with PBS ([…]), T cells (100 μL/well, 2×10^5 cells/well) were then added to the wells, followed by the addition of 2× compound stocks in RPMI media (100 μL). The outer wells of the plates were filled with media without cells to avoid the edge effect in the assay. The treatment was done overnight (24 h) at 37° C. in a 5% CO2 containing incubator. Following the treatment, the cells were transferred to a U-bottom 96-well plate and harvested by centrifugation (600 g, 3 min, 4° C.). The supernatants were kept and stored at −80° C. for further cytokine analysis, while the cells were washed with PBS (2×150 μL) prior to staining for flow cytometry analysis.
Following the PBS washes, the cells were stained with fixable near-IR LIVE/DEAD cell stain (Invitrogen) according to manufacturer's instructions. Briefly, one vial of near-IR LIVE/DEAD dye was resuspended in DMSO (50 μL) and diluted with PBS (1:1000). The diluted stain was added to each well (200 μL) and the cells were incubated for 30 min at room temperature in the dark. After this time, the cells were pelleted (600 g, 3 min, 4° C.), washed once with PBS (200 μL/well) and incubated with a freshly made cocktail of antibodies for the appropriate cell surface markers diluted in PBS containing 2% FBS (1:400 antibody dilution).

Experimental findings from patent publication US20240131032A1, “AN ACTIVITY-GUIDED MAP OF ELECTROPHILE-CYSTEINE INTERACTIONS IN PRIMARY HUMAN IMMUNE CELLS” (The Scripps Research Institute, priority 2019, published 2024) are described below.

In the case of `C=CC(=O)N(Cc1cccc(Cl)c1Cl)c1ccc(Oc2ccccc2)c(C(F)(F)F)c1` [BPK-21], the “reductions in FAM213B and HLA-F” value in data set [1] is on record as “also affected”. The cytotoxicity entry in data set [2] is on record as “negligible cytotoxicity”.

Regarding `COC(=O)/C=C/C(=O)OC` [DMF, reference compound], the viability (as a rule, a per cent measure of how many cells are alive, often set against a control) in data set [2] (electrophilic compounds 10 μM each (DMF 50 μM), 24 h) is over 85%.

With `O=C(CCl)N1CCN(S(=O)(=O)c2ccc(-c3ccncc3)cc2)CC1` [EV-3], the “reductions in FAM213B and HLA-F” value in data set [1] is “also affected”. Also, in data set [2], the cytotoxicity result was “negligible cytotoxicity”.

In the case of `C=CC(=O)N(Cc1cccc(Cl)n1)c1ccc(C(=O)Nc2ccccc2)nc1` [BPK-25], in data set [1], the “reductions in FAM213B and HLA-F” value was over 50%. Further, the cytotoxicity result in data set [2] is recorded as “negligible cytotoxicity”.
